Values quoted from earlier work in patent publication US5710046A, “Tagging hydrocarbons for subsequent identification” (Amoco Corporation, priority 1994, dated 1998).

[1] = dispersed in methanol or benzene

fluorescence wavelength [1]: approximately 840 nanometers | strong absorption [1]: 786 nanometers | fluorescence (in water): completely non-fluorescent | solubility (in water): less soluble
SMILES: CCN1C(=CC=CC=CC=Cc2sc3ccc4ccccc4c3[n+]2CC)Sc2ccc3ccccc3c21 [DDTC, 3,3'-diethyl-2,2'-(4,5', 4',5'-dibenzo) thiatricarbocyanine iodide]
